Reference: ChEMBL document CHEMBL4480415, “Design and synthesis of potent myostatin inhibitory cyclic peptides” (Bioorg Med Chem, 2019)
Where a SMILES comes first, the peptide text is derived from it. Bridges are numbered along the chain shown (N, C = ends). The star is where a group is joined. Acetyl(2-naphthyloxy) = O=C(COc1ccc2ccccc2c1)*

Test: Aqueous solubility of compound
Format: physicochemical
Conditions: buffer

solubility: Insoluble
Compound: CC[C@H](C)[C@H](NC(=O)[C@H](CCCNC(=N)N)NC(=O)[C@H](CO)NC(=O)[C@H](Cc1ccc(O)cc1)NC(=O)[C@H](CCCNC(=N)N)NC(=O)[C@@H]1CSSC[C@H](NC(=O)COc2ccc3ccccc3c2)C(=O)N[C@@H](CCC(N)=O)C(=O)N[C@@H](CC(N)=O)C(=O)N1)C(=O)N[C@@H](CCC(=O)O)C(=O)N[C@@H](Cc1c[nH]c2ccccc12)C(=O)N[C@H](C(=O)N[C@@H](CCCCN)C(=O)N[C@H](C(=O)N[C@@H](CCC(N)=O)C(=O)N[C@H](C(=O)N[C@H](C(=O)N[C@@H](CO)C(=O)N[C@@H](CCCCN)C(=O)N[C@@H](CC(C)C)C(=O)N[C@@H](CCCNC(=N)N)C(=O)N[C@@H](CC(C)C)C(N)=O)[C@@H](C)CC)[C@@H](C)CC)[C@@H](C)CC)[C@@H](C)CC ({Acetyl(2-naphthyloxy)}-CQNCRYSRIEWIKIQIISKLRL-NH2; disulfide 1-4)
